Data as given in patent US6914045B2, “Glycopeptide antibiotics” (Wyeth Holdings Corporation, priority 2001, dated 2005).
In brackets after ≈: the same amount, converted by molar mass.

Columns and labels:
Test in all cases: in vitro antibacterial evaluation, MIC by broth dilution
Format in all cases: cell-based
[1] = system: Enterococcus sp.; conditions: broth dilution, 18 hours at 35° C.
Procedure, shortened: (§1)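 MIC, the lowest antibiotic concentration preventing growth, was read across 64-0.06 μg/mL with 5×10^5 CFU/mL inoculum. Method followed NCCLS M7-A2 broth dilution using Mueller-Hinton II; Gram-positive strains covered recent methicillin-, penicillin- and/or vancomycin-resistant clinical isolates.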

[2] = system: Escherichia coli; conditions: 18 hours at 35° C.
Procedure, shortened: as §1

[3] = system: Staphylococcus sp.; conditions: broth dilution, 18 hours at 35° C.
Procedure, shortened: as §1

[4] = system: Streptococcus sp.; conditions: broth dilution, 18 hours at 35° C.
Procedure, shortened: as §1

## CC(c1ccccc1)C1NC(=O)CNC(=O)C(CO)NC(=O)C(C(O)C2CNC(=N)N2C2OC(CO)C(O)C(O)C2O)NC(=O)C(C(O)C2CNC(=N)N2)NC(=O)C(Cc2ccc(OC3OC(CO)C(OC4OC(CO)C(O)C5OC(c6ccccc6)OC45)C(O)C3O)cc2)NC1=O (single isomer, unassigned) [Example 104a, Cyclo[glycyl-β-methylphenylalanyl-O-[4-O-(2,3-O-benzylidenehexopyranosyl)hexopyranosyl]-tyrosyl-3-(2-iminoimidazolidin-4-yl)seryl-3-(3-hexopyranosyl-2-iminoimidazolidin-4-yl)-serylseryl]]
[1]; Enterococcus avium (GC 4558)
  MIC Enterococcus avium (GC 4558): >64 µg/mL
[1]; Enterococcus faecalis (ATCC 29212)
  MIC Enterococcus faecalis (ATCC 29212): >64 µg/mL
[1]; Enterococcus faecalis (GC 2242)
  MIC Enterococcus faecalis (GC 2242): >64 µg/mL
[1]; Enterococcus faecalis (GC 2691)
  MIC Enterococcus faecalis (GC 2691): >0.5 µg/mL
[1]; Enterococcus faecalis (GC 3059)
  MIC Enterococcus faecalis (GC 3059): >0.5 µg/mL
[1]; Enterococcus faecalis (GC 4552)
  MIC Enterococcus faecalis (GC 4552): >0.5 µg/mL
[1]; Enterococcus faecalis (GC 4553)
  MIC Enterococcus faecalis (GC 4553): >0.5 µg/mL
[1]; Enterococcus faecalis (GC 4554)
  MIC Enterococcus faecalis (GC 4554): >0.5 µg/mL
[1]; Enterococcus faecalis (GC 6189)
  MIC Enterococcus faecalis (GC 6189): >64 µg/mL
[1]; Enterococcus faecium (GC 2243)
  MIC Enterococcus faecium (GC 2243): >64 µg/mL
[1]; Enterococcus faecium (GC 4556)
  MIC Enterococcus faecium (GC 4556): >64 µg/mL
[1]; Enterococcus faecium (GC 4557)
  MIC Enterococcus faecium (GC 4557): 0.5 µg/mL (≈ 0.361 µM)
[1]; strain ATCC 29212
  MIC Enterococcus faecalis (ATCC 29212): >64 µg/mL
[1]; strain GC 2242
  MIC Enterococcus faecalis (GC 2242): >64 µg/mL
[1]; strain GC 2243
  MIC Enterococcus faecium (GC 2243): >64 µg/mL
[1]; strain GC 2691
  MIC Enterococcus faecalis (GC 2691): >0.5 µg/mL
[1]; strain GC 3059
  MIC Enterococcus faecalis (GC 3059): >0.5 µg/mL
[1]; strain GC 4552
  MIC Enterococcus faecalis (GC 4552): >0.5 µg/mL
[1]; strain GC 4553
  MIC Enterococcus faecalis (GC 4553): >0.5 µg/mL
[1]; strain GC 4554
  MIC Enterococcus faecalis (GC 4554): >0.5 µg/mL
[1]; strain GC 4556
  MIC Enterococcus faecium (GC 4556): >64 µg/mL
[1]; strain GC 4557
  MIC Enterococcus faecium (GC 4557): 0.5 µg/mL (≈ 0.361 µM)
[1]; strain GC 4558
  MIC Enterococcus avium (GC 4558): >64 µg/mL
[1]; strain GC 6189
  MIC Enterococcus faecalis (GC 6189): >64 µg/mL
[2]; strain ATCC 25922
  MIC Escherichia coli (ATCC 25922): >64 µg/mL
[2]; strain GC 4559
  MIC Escherichia coli (GC 4559): >64 µg/mL
[2]; strain GC 4560
  MIC Escherichia coli (GC 4560): 0.5 to 16 µg/mL
[3]
  MIC Coagulase Negative Staphylococcus (GC 4547): 32 µg/mL (≈ 23.1 µM)
  MIC Coagulase Negative Staphylococcus (GC 4548): 16 to 32 µg/mL
  MIC Coagulase Negative Staphylococcus (GC 4549): 16 to 32 µg/mL
  MIC Coagulase Negative Staphylococcus (GC 4551): 32 µg/mL (≈ 23.1 µM)
  MIC Coagulase Negative Staphylococcus (GC 6257): 16 µg/mL (≈ 11.6 µM)
  MIC Staphylococcus aureus (ATCC 29213): 0.5 to 64 µg/mL
  MIC Staphylococcus aureus (GC 1131): 0.5 to 64 µg/mL
  MIC Staphylococcus aureus (GC 3051): 0.5 µg/mL (≈ 0.361 µM)
  MIC Staphylococcus aureus (GC 3053): 0.5 µg/mL (≈ 0.361 µM)
  MIC Staphylococcus aureus (GC 4541): 0.5 to 32 µg/mL
  MIC Staphylococcus aureus (GC 4542): 0.5 µg/mL (≈ 0.361 µM)
  MIC Staphylococcus aureus (GC 4544): 0.5 µg/mL (≈ 0.361 µM)
  MIC Staphylococcus aureus (GC 4545): 0.5 µg/mL (≈ 0.361 µM)
  MIC Staphylococcus aureus-SMITH (GC 4543): 0.5 to 64 µg/mL
  MIC Staphylococcus haemolyticus (GC 4546): 32 µg/mL (≈ 23.1 µM)
[3]; strain GC 4546
  MIC Staphylococcus haemolyticus (GC 4546): 32 µg/mL (≈ 23.1 µM)
[3]; strain GC 4547
  MIC Coagulase Negative Staphylococcus (GC 4547): 32 µg/mL (≈ 23.1 µM)
[3]; strain GC 4548
  MIC Coagulase Negative Staphylococcus (GC 4548): 16 to 32 µg/mL
[3]; strain GC 4549
  MIC Coagulase Negative Staphylococcus (GC 4549): 16 to 32 µg/mL
[3]; strain GC 4551
  MIC Coagulase Negative Staphylococcus (GC 4551): 32 µg/mL (≈ 23.1 µM)
[3]; strain GC 6257
  MIC Coagulase Negative Staphylococcus (GC 6257): 16 µg/mL (≈ 11.6 µM)
[3]; strain SMITH GC 4543
  MIC Staphylococcus aureus-SMITH (GC 4543): 0.5 to 64 µg/mL
[3]; strain ATCC 29213
  MIC Staphylococcus aureus (ATCC 29213): 0.5 to 64 µg/mL
[3]; strain GC 1131
  MIC Staphylococcus aureus (GC 1131): 0.5 to 64 µg/mL
[3]; strain GC 3051
  MIC Staphylococcus aureus (GC 3051): 0.5 µg/mL (≈ 0.361 µM)
[3]; strain GC 3053
  MIC Staphylococcus aureus (GC 3053): 0.5 µg/mL (≈ 0.361 µM)
[3]; strain GC 4541
  MIC Staphylococcus aureus (GC 4541): 0.5 to 32 µg/mL
[3]; strain GC 4542
  MIC Staphylococcus aureus (GC 4542): 0.5 µg/mL (≈ 0.361 µM)
[3]; strain GC 4544
  MIC Staphylococcus aureus (GC 4544): 0.5 µg/mL (≈ 0.361 µM)
[3]; strain GC 4545
  MIC Staphylococcus aureus (GC 4545): 0.5 µg/mL (≈ 0.361 µM)
[4]; Streptococcus agalactiae (GC 4564)
  MIC Streptococcus agalactiae (GC 4564): 0.5 µg/mL (≈ 0.361 µM)
[4]; Streptococcus pneumoniae (ATCC 6301)
  MIC Streptococcus pneumoniae (ATCC 6301): 0.12 to 16 µg/mL
[4]; Streptococcus pneumoniae (GC 1894)
  MIC Streptococcus pneumoniae (GC 1894): 0.12 to 8 µg/mL
[4]; Streptococcus pneumoniae (GC 4565)
  MIC Streptococcus pneumoniae (GC 4565): 0.12 µg/mL (≈ 0.0867 µM)
[4]; Streptococcus pyogenes (GC 4563)
  MIC Streptococcus pyogenes (GC 4563): 0.12 µg/mL (≈ 0.0867 µM)
[4]; strain ATCC 6301
  MIC Streptococcus pneumoniae (ATCC 6301): 0.12 to 16 µg/mL
[4]; strain GC 1894
  MIC Streptococcus pneumoniae (GC 1894): 0.12 to 8 µg/mL
[4]; strain GC 4563
  MIC Streptococcus pyogenes (GC 4563): 0.12 µg/mL (≈ 0.0867 µM)
[4]; strain GC 4564
  MIC Streptococcus agalactiae (GC 4564): 0.5 µg/mL (≈ 0.361 µM)
[4]; strain GC 4565
  MIC Streptococcus pneumoniae (GC 4565): 0.12 µg/mL (≈ 0.0867 µM)
